Assay results: patent EP0305646B1, “3-Hydroxypyrid-4-ones and pharmaceutical compositions” (BRITISH TECHNOLOGY GROUP LIMITED, priority 1983, dated 1984)
Where two headings read alike, the source gives them in different places.

Columns and labels:
[1] = Affinity for iron (III) expressed as log Ksol; type: physicochemical; conditions: > 6.0 needed to remove iron from transferrin
Source text: In order to solubilise iron (III) hydroxide, log Ksol must be greater than 0 and in order to remove iron from transferrin, log Ksol should be in excess of 6.0. The log Ksol values for 1,2-dimethyl-3-hydroxypyrid-4-one, by way of example, is 9.5, thus comparing favourably with those of the bidentate hydroxamates at about 4.0, of catechols at about 8.0, of desferrioxamine at 6.0, and of diethylenetriamine penta-acetic acid (DTPA) at 2.0. Moreover, the ability of the compounds to remove iron efficiently has been confirmed both by in vitro test and also by in vivo tests in mice. It is particularly significant that these latter tests are successful whether the compound is given intraperitoneally or orally by stomach tube, the compounds generally either being stable under acidic conditions or being converted thereby to acid stable active compounds.

Mice = experiment: In vivo iron binding capacity: excretion of 59Fe in iron dextran loaded mice; conditions: 10 mg per mouse, control = 100%
Description: Mice were injected intraperitoneally with iron dextran (2 mg) at weekly intervals over a four week period. Two weeks after the final injection, the mice were injected via the tail vein with ^59Fe lactoferrin (human lactoferrin, 1 mg per injection 2 µCi). The mice were then caged individually. After a ten day period, 1-acetyl-3-hydroxypyrid-2-one was administered to groups of 8 mice at 10 mg per mouse either intraperitoneally or intragastrically (in each case 3 of the mice received only one dose whilst 5 received 2 doses at a 24 hour interval). The excretion of iron was recorded at either 12 or 24 hourly intervals over a three day period before and a two day period after administration of the compound. For comparative purposes, the procedure was repeated with a blank control and with desferrioxamine, also at 10 mg per mouse (the intraperitoneally treated mice receiving one dose of desferrioxamine and the intragastrically treated mice two doses at a 24 hour interval).
The results are shown in Table 4, being given on the basis of the control representing 100% excretion, and illustrate the particular advantage of the pyridones as compared with desferrioxamine for oral administration the levels of iron excreted on intragastric administration being higher for all the pyridones tested than for desferroxamine. […] However, this is not the case here, the large SD values being a consequence of the large range among the positive responses.

Horse spleen ferritin [2] = target: T1, Horse spleen ferritin (Equus caballus, UniProt P02791+Q8MIP0); experiment: Mobilisation of iron from ferritin (dialysis against a pyridone solution); type: biochemical; conditions: ferritin 10^-6 M, pH 7.4, 3 x 10^-3 M pyridone
T1 construct: Horse spleen ferritin (Sigma) was used without further purification; purchased Sigma; host or cells: horse spleen (tissue-derived)
T1 sequence (P02791 2-175 limits assumed): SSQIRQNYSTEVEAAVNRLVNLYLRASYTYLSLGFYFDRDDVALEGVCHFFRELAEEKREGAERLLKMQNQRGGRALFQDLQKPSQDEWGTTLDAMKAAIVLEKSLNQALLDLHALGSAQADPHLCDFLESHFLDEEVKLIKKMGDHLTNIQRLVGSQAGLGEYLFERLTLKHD
T1 sequence (Q8MIP0 whole entry): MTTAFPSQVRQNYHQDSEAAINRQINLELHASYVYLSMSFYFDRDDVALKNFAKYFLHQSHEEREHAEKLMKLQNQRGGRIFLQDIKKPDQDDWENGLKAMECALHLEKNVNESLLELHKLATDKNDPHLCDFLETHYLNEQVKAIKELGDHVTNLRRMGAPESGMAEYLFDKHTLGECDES
Description: Horse spleen ferritin (Sigma) was used without further purification and its iron content was estimated spectrophotometrically at 420 nm. The ferritin solution in phosphate buffered saline (Dulbecco-OXOID, 10^-6 M, pH 7.4) was enclosed in a Visking dialysis tube and dialysed against a 3 x 10^-3 M buffered solution of one of various pyridones as indicated in Table 2. The absorption spectrum of the resulting iron (III) complex in the dialysis solution was recorded after 6 and 24 hours. For comparative purposes, the procedure was repeated using a blank control.
The results are shown in Table 2 where the percentage of ferritin-bound iron removed by the compound under test is shown. For comparative purposes, results reported in the literature for similar tests with 1 x 10^-3 M desferrioxamine (Crichton et al., J. Inorganic Biochem., 1980, 13, 305) and with 6 x 10^-3 M LICAMS (Tufano et al., Biochem. Biophys. Acta, 1981, 668, 420) are also given in the Table. It will be seen that the pyridone compounds are able to remove iron effectively from ferritin in contrast with desferrioxamine and LICAMS (although the latter will remove iron in the presence of ascorbic acid such a mixture is very difficult to manage clinically). […]

Human transferrin = target: T2, Human transferrin (Homo sapiens, UniProt P02787); experiment: Mobilisation of iron from 59Fe-loaded transferrin; type: biochemical; conditions: 59Fe transferrin 10^-5 M, compound 4 x 10^-3 M in tris HCl (0.1 M, pH 7.4); for Percentage of iron removed 4 hours: incubation 4 hours; for Percentage of iron removed 18 hours: incubation 18 hours
T2 construct: purchased Sigma
T2 sequence (P02787 20-698): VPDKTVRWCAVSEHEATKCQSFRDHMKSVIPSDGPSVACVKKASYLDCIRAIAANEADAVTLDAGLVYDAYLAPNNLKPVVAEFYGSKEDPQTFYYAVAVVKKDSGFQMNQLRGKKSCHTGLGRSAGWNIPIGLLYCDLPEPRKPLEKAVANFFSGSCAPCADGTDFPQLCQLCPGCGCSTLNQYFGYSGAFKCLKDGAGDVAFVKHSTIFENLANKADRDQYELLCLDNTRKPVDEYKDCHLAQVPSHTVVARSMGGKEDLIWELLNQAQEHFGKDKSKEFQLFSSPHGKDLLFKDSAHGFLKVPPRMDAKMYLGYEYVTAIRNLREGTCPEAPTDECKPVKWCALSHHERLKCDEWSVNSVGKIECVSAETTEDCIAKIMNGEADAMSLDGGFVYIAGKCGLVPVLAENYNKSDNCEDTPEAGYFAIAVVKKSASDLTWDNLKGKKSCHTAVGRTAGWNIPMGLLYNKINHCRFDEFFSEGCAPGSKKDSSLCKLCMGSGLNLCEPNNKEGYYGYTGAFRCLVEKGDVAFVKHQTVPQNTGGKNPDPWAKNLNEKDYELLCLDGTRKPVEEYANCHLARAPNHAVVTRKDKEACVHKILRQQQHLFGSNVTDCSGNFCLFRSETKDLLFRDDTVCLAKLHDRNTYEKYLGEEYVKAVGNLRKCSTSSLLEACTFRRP
Description: Human transferrin (Sigma) was loaded with iron (III) by the method of Bates and Schlaback. J. Biol. Chem. (1973) 248, 3228. ^59Iron (III) transferrin (10^-5 M) was incubated with a 4 x 10^-3 M solution in tris HCl (0.1 M, pH 7.4) of one of various pyridones as indicated in Table 3 for periods of 4 hours and 18 hours. The solution was then dialysed against phosphate buffered saline for 24 hours. The ^59Fe remaining in the dialysis tube was then recorded. For comparative purposes, this procedure was repeated with desferrioxamine using incubation for both 4 hours and 18 hours and with EDTA using incubation for 4 hours only.
The results are shown in Table 3 in terms of the percentage of transferrin bound iron removed by the compound under test. It will be seen that the pyrid-4-one compounds are very effective at iron removal, as compared with desferrioxamine or EDTA, after only 4 hours.

[3] = Partition coefficient Kpart between n-octanol and aqueous tris hydrochloride, by spectrophotometry; conditions: n-octanol / tris hcl, pH 7.4
Description: The partition coefficient Kpart being the ratio (concentration of compound in n-octanol)/)concentration of compound in aqueous phase) on partition between n-octanol and aqueous tris hydrochloride (20 mM, pH 7.4), is measured by spectrophotometry at 20°C for various of the compounds of the previous Examples and for their 3:1 iron(III) complexes at (10^-4M by spectrophotometry. The solutions of the complexes are either produced by dissolving the pre-formed complex in the aqueous tris hydrochloride or are prepared in situ in the buffer by the admixture of a 3:1 molar ratio of the pyridone and ferric chloride, the pH thereafter being readjusted to 7.4 if necessary (the same product will be obtained in the buffer solution irrespective of whether the pyridone used is in a salt form or not). Acid washed glassware is used throughout and, following mixing of 5 ml of the 10^-4M aqueous solution with 5 ml n-octanol for 1 minute, the aqueous n-octanol mixture is centrifuged at 1,000 g for 30 seconds. The two resulting phases are separated for a concentration determination by spectrophotometry on each. For the free hydroxypyridones, the range 220-240 nm is used for concentration determinations whilst for the iron complexes, the range 340-360 nm is used.

Horse spleen ferritin [4] = target: T1, Horse spleen ferritin; conditions: cited from earlier work

## Cc1c(O)c(=O)ccn1C [1,2-dimethyl-3-hydroxypyrid-4-one]
[1]
  log Ksol: 9.5

## Cc1c(O)c(=O)ccn1CCO [3-hydroxy-1-(2'-hydroxyethyl)-2-methylpyrid-4-one]
Mice; Intraperitoneal Administration
  Excretion of ^59Fe±SD percent: 170 ± 49%
Horse spleen ferritin [2]
  Percentage of iron removed 6 hours: 31%
  Percentage of iron removed 24 hours: 49%
Human transferrin
  Percentage of iron removed 4 hours: 94%
  Percentage of iron removed 18 hours: 96%

## COC(=O)CCn1ccc(=O)c(O)c1C [3-hydroxy-1-(2'-methoxycarbonylethyl)-2-methylpyrid-4-one]
Horse spleen ferritin [2]
  Percentage of iron removed 6 hours: 22%
  Percentage of iron removed 24 hours: 45%

## Cc1c(O)c(=O)ccn1CCCCCO [3-hydroxy-1-(5'-hydroxypentyl)-2-methylpyrid-4-one]
Mice; Intragastric Administration
  Excretion of ^59Fe±SD percent: 111 ± 22%
Mice; Intraperitoneal Administration
  Excretion of ^59Fe±SD percent: 149 ± 59%

## Cn1cc(O)c(=O)cc1CO [3-hydroxy-6-hydroxymethyl-1-methylpyrid-4-one]
Horse spleen ferritin [2]
  Percentage of iron removed 6 hours: 25%
  Percentage of iron removed 24 hours: 49%
[3]
  logD: -1.52
Human transferrin
  Percentage of iron removed 4 hours: 93%
  Percentage of iron removed 18 hours: 97%

## O=C(O)CN(CCN(CC(=O)O)CC(=O)O)CCN(CC(=O)O)CC(=O)O [DTPA, diethylenetriamine penta-acetic acid]
[1]
  log Ksol: 2.0

## CC(=O)N(O)CCCCCNC(=O)CCC(=O)N(O)CCCCCNC(=O)CCC(=O)N(O)CCCCCN [Desferrioxamine, reference compound]
Mice; Intragastric Administration
  Excretion of ^59Fe±SD percent: 88 ± 17%
Mice; Intraperitoneal Administration
  Excretion of ^59Fe±SD percent: 414 ± 100%
[1]
  log Ksol: 6.0
Human transferrin
  Percentage of iron removed 4 hours: 17%
  Percentage of iron removed 18 hours: 22%
Horse spleen ferritin [4]; 1 mM desferrioxamine, literature (Crichton et al.)
  Percentage of iron removed 6 hours: 1.5%

## O=C(O)CN(CCN(CC(=O)O)CC(=O)O)CC(=O)O [EDTA, ethylenediamine tetra-acetic acid, reference compound]
Human transferrin
  Percentage of iron removed 4 hours: 27%
  Percentage of iron removed 18 hours: 67%

## O=C(NCCCCN(CCCNC(=O)c1cc(S(=O)(=O)O)cc(O)c1O)C(=O)c1cc(S(=O)(=O)O)cc(O)c1O)c1cc(S(=O)(=O)O)cc(O)c1O [LICAMS]
Horse spleen ferritin [4]; 6 mM LICAMS + 12 mM ascorbic acid, literature (Tufano et al.)
  Percentage of iron removed 6 hours: 7%
Horse spleen ferritin [4]; 6 mM LICAMS, literature (Tufano et al.)
  Percentage of iron removed 6 hours: 0%
